Experimental data taken from the NIST ThermoML archive (doi:10.1021/je060271a).

Settings: 323.15 K, Liquid, Vibrating tube method

CCCCCCCC(=O)OCC(COC(=O)CCCCCCC)(COC(=O)CCCCCCC)COC(=O)CCCCCCC [pentaerythritol tetraoctanoate]
Settings | mass density [kg/m3]
1092.7 kPa | 941.3
1117.7 kPa | 941.4
1150.2 kPa | 941.4
1178 kPa | 941.4
1206.8 kPa | 941.4
1237.7 kPa | 941.5
1275.6 kPa | 941.4
1308.8 kPa | 941.4
1344.2 kPa | 941.6
1380.8 kPa | 941.4
1426.8 kPa | 941.7
1467.5 kPa | 941.6
1510.3 kPa | 941.7
1707.2 kPa | 941.7
1720.8 kPa | 941.6
1734.6 kPa | 941.9
1749 kPa | 941.8
1766.8 kPa | 941.8
1780.8 kPa | 941.9
1795.7 kPa | 941.8
1810.5 kPa | 941.9
1828.9 kPa | 941.8
1844.2 kPa | 941.8
1859.6 kPa | 942
1875.8 kPa | 941.8
1895.2 kPa | 942
1915.1 kPa | 941.9
1932.3 kPa | 942
1947.8 kPa | 942
1957.8 kPa | 942
1963.7 kPa | 942
1968.9 kPa | 942
1974 kPa | 942
1987.2 kPa | 942.1
2016.7 kPa | 941.9
2142.1 kPa | 942
2259.4 kPa | 942.1
2339.7 kPa | 942.1
2352.9 kPa | 942.3
2366.5 kPa | 942.3
2382.6 kPa | 942.2
2409.7 kPa | 942.5
2426.8 kPa | 942.3
2441.1 kPa | 942.3
2454.6 kPa | 942.4
2468.6 kPa | 942.2
2486 kPa | 942.4
2500.4 kPa | 942.4
2515.6 kPa | 942.2
2533.2 kPa | 942.4
2546 kPa | 942.5
2554.1 kPa | 942.4
2597 kPa | 942.4
2605 kPa | 942.4
2612.9 kPa | 942.4
2622.5 kPa | 942.4
2630.8 kPa | 942.4
2639.1 kPa | 942.4
2648.3 kPa | 942.4
2656.5 kPa | 942.4
2664.8 kPa | 942.5
2674.9 kPa | 942.5
2683.4 kPa | 942.5
2692.2 kPa | 942.4
2701.1 kPa | 942.4
2709.7 kPa | 942.4
2720 kPa | 942.5
2728.5 kPa | 942.4
2737.3 kPa | 942.5
2746.3 kPa | 942.5
2756.7 kPa | 942.6
2765.4 kPa | 942.6
2775.6 kPa | 942.5
2784.8 kPa | 942.5
2793.7 kPa | 942.6
2803.2 kPa | 942.6
2814.5 kPa | 942.5
2821.9 kPa | 942.6
2832.7 kPa | 942.6
2841.7 kPa | 942.5
2852.6 kPa | 942.6
2862.2 kPa | 942.5
2871.5 kPa | 942.6
2880.9 kPa | 942.6
2892.2 kPa | 942.6
2901.4 kPa | 942.6
2911.2 kPa | 942.6
2922.7 kPa | 942.6
2932.2 kPa | 942.6
2944 kPa | 942.6
2953.7 kPa | 942.6
2963.9 kPa | 942.6
2974 kPa | 942.7
2983.7 kPa | 942.7
2995.7 kPa | 942.7
3005.6 kPa | 942.6
3016 kPa | 942.6
3027.9 kPa | 942.7
3038.3 kPa | 942.7
3048.7 kPa | 942.7
3059.1 kPa | 942.7
3071.6 kPa | 942.8
3082 kPa | 942.7
3092.6 kPa | 942.7
3105.1 kPa | 942.7
3115.6 kPa | 942.8
3128.6 kPa | 942.7
3139.4 kPa | 942.6
3150.3 kPa | 942.7
3159 kPa | 942.7
3173.9 kPa | 942.8
3185.2 kPa | 942.8
3196.4 kPa | 942.8
3207.5 kPa | 942.8
3220.5 kPa | 942.8
3232.3 kPa | 942.8
3243.6 kPa | 942.8
3257.1 kPa | 942.9
3268.7 kPa | 942.8
3280 kPa | 942.8
3291.9 kPa | 942.9
3306.1 kPa | 942.9
3317.8 kPa | 942.8
3329.5 kPa | 942.9
3343.6 kPa | 942.8
3355.4 kPa | 942.9
3367.5 kPa | 943
3380.2 kPa | 943
3392.6 kPa | 943.1
3407.2 kPa | 943
3419.3 kPa | 942.9
3431.8 kPa | 943.1
3446.7 kPa | 943
3459.2 kPa | 942.9
3469.6 kPa | 942.9
3479.3 kPa | 943
3494.5 kPa | 942.9
3507.4 kPa | 943
3540.6 kPa | 943
3553.8 kPa | 942.9
3567 kPa | 943.1
3580 kPa | 943.1
3710.3 kPa | 943.1
3724.8 kPa | 943.2
3743.3 kPa | 943
3756.8 kPa | 943.3
3771.5 kPa | 943.2
